Laboratory results taken from patent US4398937A, “Selective algaecides for control of cyanochloronta” (The University of Southern Mississippi, priority 1981, dated 1983).
Read-outs that look alike come from different tables or passages of the source.

What was measured:
Type in all cases: cell-based
Chlorella vulgaris [1] = experiment: 300 ml batch culture of Chlorella vulgaris, visual; settings: batch cultures, all concentrations
Method: (§1) As a means of visually confirming some of the results batch cultures of 300 ml. of Anabaena flos-aquae and Chlorella vulgaris were grown.

Chlamydomonas sp. = experiment: Test tube culture inhibition of Chlamydomonas sp., algal units/ml
Method: (§2) The algae used in this particular study were Chlamydomonas sp., Chlorella vulgaris, Anabaena sp., and Anabaena flos-aquae. Cultures of these algae were obtained, subcultured, and aqueous stocks of algae in 400 ml BBM were prepared and were used in log phase growth to innoculate test cultures.
(§3) The fatty acids which were tested as algal inhibitors were 9, 10-dihydroxystearic acid, linoleic acid, dodecanoic acid, and ricinoleic acid.
(§4) The test procedure involved placing 15 ml of BBM into 25 ml test tubes and innoculating them with 0.2 ml of algal stock solution. Twenty test tubes were innoculated with each algae. Four of these cultures were used with each concentration of each of the fatty acids. Four tubes from each set served as controls. Four concentrations of the fatty acids were used for each alga. The concentrations studied were 0.5 PPM, 1.0 PPM, 5.0 PPM, and 10.0 PPM.
(§5) Algal cultures were incubated under constant light of about 200 foot-candles and at a temperature of 68° F. Bold's Basal Medium (BBM), a modification of Bristol's solution was the medium in which all the cultures were grown. Bold's Basal Medium was prepared as follows:
(§6) Concentrations of fatty acids and the amount of stock solution used to prepare them were as follows:
(§7) Each test tube contained 15 ml sterile BBM. To this was added an aliquot of 0.2 of algal stock solution. Then the appropriate aliquots of warm acid stock solution were added to the appropriate number of culture tubes. These cultures were then incubated 5 days and at that point were counted. The same cultures were also counted after a 12 day growth period.
(§8) Stock solutions of the fatty acids to be tested as algal inhibitors were made from a stock solution of 5% sodium bicarbonate in glass-distilled water. The 5% sodium bicarbonate stock solution was made by dissolving 150 grams of sodium bicarbonate in 3000 ml of glass-distilled water. To insure complete dissolution, the solution was heated and stirred on a magnetic stirrer hot plate. The warm solution was used in preparing the fatty acid stock solutions.
(§9) Quanitative phytoplankton values were determined using the random field method. Filaments, colonies, and aggregations of cells were recorded as algal units. Each unit consisted of approximately 6 cells. Unicellular algae were counted as separate units. Algal counts were made from each of three duplicate cultures. One ml of the algal sample was placed in a Sedgwick-Rafter counting chamber, which is 50 mm long by 20 mm, wide by 1 mm deep. A Wild Heerbrugg, compound microscope with a Whipple grid eyepiece was used to determine quantitative algae values.
(§10) One ml of the algal solution was placed in the counting chamber, and two drops of methyl cellulose were added to minimize the movement of Chlamydomonas sp. Ten random fields were counted and all organisms within the Whipple grid field were enumerated.
(§11) The following formula used to calculate the numbers per milliliter from the field counts: [formula] where: C=number of organisms counted,
(§12) The area of the Whipple grid used was 0.46 mm^2, and the depth of a field was 1 mm. Results of the counts were reported as algal units/ml.

Chlorella vulgaris [2] = experiment: Test tube culture inhibition of Chlorella vulgaris, algal units/ml
Method: as §2, §3, §4, §5, §6, §7, §8, §9, §10, §11, §12

Anabaena sp. = experiment: Test tube culture inhibition of Anabaena sp., algal units/ml
Method: as §2, §3, §4, §5, §6, §7, §8, §9, §10, §11, §12

Anabaena flos-aquae [3] = experiment: Test tube culture inhibition of Anabaena flos-aquae, algal units/ml
Method: as §2, §3, §4, §5, §6, §7, §8, §9, §10, §11, §12

Anabaena flos-aquae [4] = experiment: 300 ml batch culture of Anabaena flos-aquae, visual
Method: as §1

[5] = 5 and 12 days, all concentrations

Q: Which “inhibition (visual)” value (Chlorella vulgaris [1]) does the source give for `CCCCCC[C@@H](O)C/C=C\CCCCCCCC(=O)O` [Ricinoleic Acid, ricinoleic acid] here?
A: no inhibition was noticed

Q: And the “effect on algal growth” value (Chlamydomonas sp.; [5])?
A: stimulatory effect

Q: What about the “concentration of maximum stimulatory effect” value (Chlamydomonas sp.; 5 days) of the same molecule?
A: 5.0 PPM

Q: What about the Algal units/ml (Chlamydomonas sp.; 5 days, 0.5 PPM) of the same molecule?
A: 18696 units/ml

Q: What about the Algal units/ml (Chlamydomonas sp.; 5 days, 1.0 PPM) of the same molecule?
A: 29130 units/ml

Q: What about the Algal units/ml (Chlamydomonas sp.; 5 days, 5.0 PPM) of the same molecule?
A: 32609 units/ml

Q: What about the Algal units/ml (Chlamydomonas sp.; 5 days, 10.0 PPM) of the same molecule?
A: 13043 units/ml

Q: And the “concentration of maximum stimulatory effect” value (Chlamydomonas sp.; 12 days)?
A: 0.5 PPM

Q: And the Algal units/ml (Chlamydomonas sp.; 12 days, 0.5 PPM)?
A: 65217 units/ml

Q: What about the Algal units/ml (Chlamydomonas sp.; 12 days, 1.0 PPM) of the same molecule?
A: 63043 units/ml

Q: And the Algal units/ml (Chlamydomonas sp.; 12 days, 5.0 PPM)?
A: 52174 units/ml

Q: And the Algal units/ml (Chlamydomonas sp.; 12 days, 10.0 PPM)?
A: 54348 units/ml

Q: What about the activation at 5 ppm (Chlamydomonas sp.; Chlamydomonas, 120 h, read-out: increase in number of algal units/ml of the control) of the same molecule?
A: 183%

Q: And the Algal units/ml (Chlorella vulgaris [2]; 5 days, 0.5 PPM)?
A: 20217 units/ml

Q: And the Algal units/ml (Chlorella vulgaris [2]; 5 days, 1.0 PPM)?
A: 21739 units/ml

Q: And the Algal units/ml (Chlorella vulgaris [2]; 5 days, 5.0 PPM)?
A: 22391 units/ml

Q: What about the Algal units/ml (Chlorella vulgaris [2]; 5 days, 10.0 PPM) of the same molecule?
A: 20870 units/ml

Q: And the Algal units/ml (Chlorella vulgaris [2]; 12 days, 0.5 PPM)?
A: 217391 units/ml

Q: What about the Algal units/ml (Chlorella vulgaris [2]; 12 days, 1.0 PPM) of the same molecule?
A: 326087 units/ml

Q: And the Algal units/ml (Chlorella vulgaris [2]; 12 days, 5.0 PPM)?
A: 326087 units/ml

Q: And the Algal units/ml (Chlorella vulgaris [2]; 12 days, 10.0 PPM)?
A: 326087 units/ml

Q: What about the activation at 0.5 ppm (Chlorella vulgaris [2]; Chlorella vulgaris, 120 h, 5 days, 0.5 PPM, read-out: more algal units/ml than in the control) of the same molecule?
A: 86%

Q: What about the activation at 10 ppm (Chlorella vulgaris [2]; Chlorella vulgaris, 288 h, 12 days, 10 PPM, read-out: more algal units/ml than in the control) of the same molecule?
A: 50%

Q: And the “effect on algal growth” value (Chlorella vulgaris [2]; all concentrations at 5 days, 5 and 10 PPM at 12 days)?
A: stimulatory effect

Q: What about the inhibition of growth at 5 ppm (Anabaena sp.; 120 h, 5 days, 5.0 PPM, read-out: reduction of algal units/ml, % of the control) of the same molecule?
A: 15.6%

Q: And the inhibition of growth at 10 ppm (Anabaena sp.; 120 h, 5 days, 10.0 PPM, read-out: reduction of algal units/ml, % of the control)?
A: 30.6%

Q: What about the Algal units/ml (Anabaena sp.; 5 days, 0.5 PPM) of the same molecule?
A: 36522 units/ml

Q: And the Algal units/ml (Anabaena sp.; 5 days, 1.0 PPM)?
A: 35652 units/ml

Q: And the Algal units/ml (Anabaena sp.; 5 days, 5.0 PPM)?
A: 26957 units/ml

Q: And the Algal units/ml (Anabaena sp.; 5 days, 10.0 PPM)?
A: 22174 units/ml

Q: What about the “reduction in algal units/ml vs control” value (Anabaena sp.; 5 days, 10.0 PPM) of the same molecule?
A: 9,783 algal units/ml

Q: And the inhibition of growth at 0.5 ppm (Anabaena sp.; 288 h, 12 days, 0.5 PPM (so in the source), read-out: reduction of algal units/ml, % of the control)?
A: 59.7%

Q: And the inhibition of growth at 10 ppm (Anabaena sp.; 288 h, 12 days, 10 PPM, read-out: reduction of algal units/ml, % of the control)?
A: 65.2%

Q: And the Algal units/ml (Anabaena sp.; 12 days, 0.5 PPM)?
A: 97391 units/ml

Q: What about the “reduction of algal units/ml vs control” value (Anabaena sp.; 12 days, 0.5 PPM (so in the source)) of the same molecule?
A: 70,434 algal units/ml

Q: And the Algal units/ml (Anabaena sp.; 12 days, 1.0 PPM)?
A: 81957 units/ml

Q: What about the Algal units/ml (Anabaena sp.; 12 days, 5.0 PPM) of the same molecule?
A: 47609 units/ml

Q: And the “reduction of algal units/ml vs control” value (Anabaena sp.; 12 days, 10 PPM)?
A: 76,956 algal units/ml

Q: And the Algal units/ml (Anabaena sp.; 12 days, 10.0 PPM)?
A: 41087 units/ml

Q: And the “effect on growth” value (Anabaena sp.; concentrations of 1.0 PPM or less)?
A: stimulatory effect

Q: And the “effect on algal growth” value (Anabaena flos-aquae [3]; [5])?
A: inhibitory effect

Q: What about the Algal units/ml (Anabaena flos-aquae [3]; 5 days, 0.5 PPM) of the same molecule?
A: 435 units/ml

Q: What about the Algal units/ml (Anabaena flos-aquae [3]; 5 days, 1.0 PPM) of the same molecule?
A: 1087 units/ml

Q: What about the Algal units/ml (Anabaena flos-aquae [3]; 5 days, 5.0 PPM) of the same molecule?
A: 1087 units/ml

Q: And the Algal units/ml (Anabaena flos-aquae [3]; 5 days, 10.0 PPM)?
A: 652 units/ml

Q: And the Algal units/ml (Anabaena flos-aquae [3]; 12 days, 0.5 PPM)?
A: 10217 units/ml

Q: What about the Algal units/ml (Anabaena flos-aquae [3]; 12 days, 1.0 PPM) of the same molecule?
A: 6522 units/ml

Q: What about the Algal units/ml (Anabaena flos-aquae [3]; 12 days, 5.0 PPM) of the same molecule?
A: 4783 units/ml

Q: And the “reduction in number of algal units/ml vs control” value (Anabaena flos-aquae [3]; 12 days, 10 PPM)?
A: 38,261 algal units/ml

Q: And the Algal units/ml (Anabaena flos-aquae [3]; 12 days, 10.0 PPM)?
A: 3043 units/ml

Q: And the inhibition of growth at 10 ppm (Anabaena flos-aquae [3]; Dolichospermum flos-aquae, 288 h, 12 days, 10 PPM, read-out: reduction in number of algal units/ml, % of the control)?
A: 92.6%

Q: What about the “inhibition (visual)” value (Anabaena flos-aquae [4]; 1 PPM) of the same molecule?
A: slightly inhibited

Q: What about the “inhibition (visual)” value (Anabaena flos-aquae [4]; 10 PPM) of the same molecule?
A: greatly inhibited
